# Assay results reported in patent US20120058500A1, “PLATELET AGGREGATION USING A MICROFLUIDICS DEVICE” (Monash University, priority 2009, published 2012).
# Positions of bridges follow the written chain, without caps; N, C: chain ends. Non-standard residues stand in square brackets, D forms with d. Residues, ends and D or L forms follow the SMILES beside them. hArg = N=C(N)NCCCC[C@H](N)C(=O)O; Mpa = O=C(O)CCS
# B1: c7E3 Fab: anti-integrin αIIbβ3 ab c7E3, used to block the platelet integrin αIIbβ3 (antibody, chains of the INN, looked up, V domains shown)
# VH: EVQLQQSGTVLARPGASVKMSCEASGYTFTNYWMHWVKQRPGQGLEWIGAIYPGNSDTSYIQKFKGKAKLTAVTSTTSVYMELSSLTNEDSAVYYCTLYDGYYVFAYWGQGTLVTVSA
# VL: EIVLTQSPVTLSVTPGDSVSLSCRASRDISNNLHWFQQTSHESPRLLIKYASQSMSGIPSRFSGSGSGTDFTLSINSVETEDFGMYFCQQTNSWPYTFGGGTKLEIK
# modifications: Fab
# Columns and labels:
# [1] = test system: platelet aggregation in human whole blood; experiment: Anti-platelet inhibitor effects in microchannel, c85 g30 e85 100-100 μm format; format: cell-based; settings: 10 mins pre-treatment, hirudin anti-coagulated whole blood, FIG. 22
# Procedure: (§1) Blood samples from subjects were taken via venisection of the antecubital vein using a 10 ml syringe fitted with a 19 guage needle containing 800 U/ml hirudin as anticoagulant.
# (§2) Blood perfusion studies through the device were carried out using hiridin (800 U/ml) anticoagulated whole blood taken from consenting human donors. Whole blood samples were incubated at 37° C. for 10 minutes with the lipophylic membrane dye DiOC6 (1 μg/ml) or DiICl2 (1 μg/ml) to allow the cells to be more readily visualised through the device.
# The micro-geometry device used in the present example has a contraction angle (θc) of 85°, an expansion angle (θe) of 85°, a gap width of 30 μm, a gap length of 15 μm and channel entry and exit width of 100 μm (c85 g30 e85 100-100 μm format).
# The following anti-platelet drugs were used either alone or in combination: • 1. Hirudin: Human whole blood anti-coagulated with Hirudin (800 U/ml) as a control. • 2. Hirudin+MRS: Human (hirudin anti-coagulated) whole blood pre-treated for 10 mins with 100 μM of the P2Y1 adenosine-5′-diphosphate (ADP) antagonist N6-methyl-2′-deoxyadenosine-3′,5′-bisphosphate (MRS2179). • 3. Hirudin+2Me: Human (hirudin anti-coagulate) whole blood pre-treated for 10 mins with 10 μM of the P2Y12 (ADP) antagonist 2-methylthio-AMP (2MesAMP). • 4. […]
# [2] = test system: platelet aggregation in human blood; settings: treated samples versus normal samples, specific microchannel geometries
# Description: It will be further appreciated that the device and method of the invention can be used to assay the effectiveness of particular drugs or substances.
# [3] = test system: platelet aggregation in hirudin-anticoagulated whole blood; experiment: Whole blood perfusion through step geometry micro-shear gradient device (c90 g10 e60 100-700 μm format), platelet aggregation traces; format: cell-based, human; settings: whole blood treated 10 minutes with 30 μg/ml prior to perfusion; input shear rate 1,800 s^-1; FIG. 11c
# Procedure: as §1, §2
# FIG. 11a is a representative micrograph (40× magnification) sequence of human (hirudin anti-coagulated) blood perfusion through a micro-shear gradient device consisting of an in-flow (entry) width of 100 μm, a contraction angle (θc) of 90°, a gap height of 10 μm, an expansion angle (θe)) of 60°, and an expansion/exit width of 700 μm. The grey arrow denotes the point of initial aggregation [t=12 sec], the black arrow designates the limit of thrombus growth in the expansion zone (representative of n=3 experiments).
# FIG. 11c comprises representative aggregation traces showing the response of whole blood perfusion through the PDMS microchannel device depicted in FIG. 11a. […]
# [4] = test system: platelet aggregation in whole blood; experiment: Real-time epi-fluorescence imaging of DiOC6 labeled whole blood perfusion through the c60g20e60 microchannel; format: cell-based, human; settings: 20 μg/ml; blood also pre-treated with apyrase, MRS2179, 2-MeSAMP, Indomethacin, hirudin; 16 μL/min, input strain rate 1,800 s-1
# Procedure: as §1, §2
# FIG. 20a represents real-time epi-fluorescence imaging of DiOC6 labeled whole blood perfusion at a constant flow rate of 16 μL/min (input strain rate=1,800 s−1) through the c60g20e60 geometric format over a 10 min timeframe, following pre-treatment for 10 minutes with the platelet inhibitors apyrase (0.02 U/ml), N6-methyl-2′-deoxyadenosine-3′,5′-bisphosphate (MRS2179 at 100 μM) and 2-methylthio-AMP (2-MeSAMP at 10 μM) to block ADP; Indomethacin (10 μM) to block TXA2; and hirudin (800 U/ml) to block thrombin. […] To investigate the platelet adhesion receptors mediating the aggregation response, whole blood samples were pretreated with the anti-integrin αIIbβ3 ab c7E3 (20 μg/ml) to block the platelet integrin αIIbβ3 or the anti-GPIb IgG Alma12 (50 μg/ml) to block platelet GPIb/V/IX engagement of VWF.
molecule,measurement,setting,value
"CNc1ncnc2c1ncn2[C@H]1C[C@H](OP(=O)(O)O)[C@@H](COP(=O)(O)O)O1 [MRS, N6-methyl-2′-deoxyadenosine-3′,5′-bisphosphate]",effect on the aggregation profile in the device,"[1]; 100 μM, compared with the P2Y12 inhibitor",much more marked effect
"CSc1nc(N)c2ncn([C@@H]3O[C@H](COP(=O)(O)O)[C@@H](O)[C@H]3O)c2n1 [inhibitor of the P2Y12 (ADP) receptor, 2-methylthio-AMP]",reduction in overall aggregation in the device,[1]; 10 μM,50%
N=C(N)NCCCC[C@@H]1NC(=O)CCSSC[C@@H](C(N)=O)NC(=O)[C@@H]2CCCN2C(=O)[C@H](Cc2c[nH]c3ccccc23)NC(=O)[C@H](CC(=O)O)NC(=O)CNC1=O [integrilin] ([Mpa][hArg]GDWPC-NH2; disulfide 1-7),platelet aggregation profile versus normal samples,[2],different platelet aggregation profile
B1,initial recruitment at the stenosis apex,[3],markedly delayed
same,overall aggregation,[3],suppressed
same,platelet aggregation within the c60g20e60 geometry,[4],completely inhibited
